Laboratory results: US10215749B2, “Ported parallel plate flow chamber and methods for use thereof” (priority 2013, dated 2019)

Test system: Human Aortic Endothelial Cells
Assay: Gene expression differences (Affymetrix PRIMEVIEW microarray) under shear stress conditions with PI-103 treatment in a flow chamber
Type: cell-based
Procedure: Cells were cultured on a collagen I-coated growth surface under static conditions (no flow) until confluency was reached. Cells were then either exposed to fluid flow in a flow chamber at 0.2 or 1.0 Pa for 20 hours, or left in static culture for the same amount of time. At 20 hours, RNA was isolated from the cells using an Ambion MIRVANA™ RNA isolation kit (Life Technologies, Foster City Calif., United States of America) and processed for analysis on Affymetrix PRIMEVIEW™ arrays (Affymetrix, Inc., Santa Clara, Calif., United States of America). Three experiments were performed for each condition, providing replicates for microarray analysis.
Gene expression differences in Human Aortic Endothelial Cells were also tested under different shear stress conditions, using a flow chamber device, in the presence or absence of the PI3K/Akt and mTOR inhibitor PI-103 (3-[4-(4-morpholinyl)pyrido[3′,2′:4,5]furo[3,2-d]pyrimidin-2-yl]-phenol); CAS No. 371935-74-9) at a concentration of 100 nM.
Cells were grown on a collagen-I coated growth surface and treated with 100 nM PI-103 in the presence of flow. For the 4 hour time point, cells were exposed to fluid flow for 16 hours and treated with PI-103 for the last 4 hours in the presence of flow. Cells were also treated with PI-103 for the entire duration of flow (20 hours). Data was generated using RNA extracted as described in Example 1, and analyzed on Affymetrix PRIMEVIEW™ arrays (Affymetrix, Inc.,). Three experiments were performed for each condition, providing replicates for microarray analysis.

Structure (SMILES): Oc1cccc(-c2nc(N3CCOCC3)c3oc4ncccc4c3n2)c1 [PI-103, 3-[4-(4-morpholinyl)pyrido[3′,2′:4,5]furo[3,2-d]pyrimidin-2-yl]-phenol]
- No. of Genes Changed (0.2 Pa shear stress, 100 nM PI-103, 4 hr drug exposure, vs non-treated cells under same flow): 830
- No. of Genes Changed (0.2 Pa shear stress, 100 nM PI-103, 20 hr drug exposure, vs non-treated cells under same flow): 113
- No. of Genes Changed (1.0 Pa shear stress, 100 nM PI-103, 4 hr drug exposure, vs non-treated cells under same flow): 1563
- No. of Genes Changed (1.0 Pa shear stress, 100 nM PI-103, 20 hr drug exposure, vs non-treated cells under same flow): 119
- No. of Genes Changed (No Shear (static), 100 nM PI-103, 4 hr drug exposure, vs non-treated cells under same condition): 130
- No. of Genes Changed (No Shear (static), 100 nM PI-103, 20 hr drug exposure, vs non-treated cells under same condition): 159
